Measurements reported in patent US20100075370A1, “METHOD FOR DETERMINATION OF CELL VIABILITY BY USING FLOW CYTOMETRY WITH FIXED VOLUME ACQUISITION” (TUMORTEC GMBH, priority 2006, published 2010).

Tested on: patient samples (pBMC from CLL patients)
Assay: Cytotoxicity assay of example 1 (new method), chemosensitivity index Ci
Type: cell-based, human
Description: (2) A more complex standardization is the calculation of an index. In case of the chemosensitivity testing it is not a single value that has to be standardized. The chemosensitivity towards a drug is tested with several concentrations of the drug in parallel in a cell culture assay. […] This method was adopted for the present invention from the analysis of DiSC assays (Staib et al., British Journal of Haematology, 2005, 128, 783-791). The Chemosensitivity Index Ci was designed as a prognostic index for ex vivo chemosensitivity assays. Assay results were expressed as percent tumor cell survival (% TCS). The dose-response curve as a function of the dose-response relationship may be mathematically described by a […] regression model (FIG. 4). The dose-response curve was defined as CS=c1*e^conc*c2 % with cell survival (CS), drug concentration (conc) and the constants c1 and c2. c1 represented the y-axis distance and c2 the slope of the curve. The area under the curve (AUC) as an exact measure for the total dose response relation was defined as AUC=−e^c1/c2, on condition that c2 is less than 0, otherwise AUC is infinite. The chemosensitivity index, Ci, was set up as Ci=e^−AUC*c with a domain between 0 and 1. The drug-specific constant c was used for adjusting the Ci-value of 0.5 as the cut-off point between resistance and sensitivity. The constant c was defined as
with AUCcut-off as the smallest AUC value among all clinical non-responding patients of the training data set. Obviously, all cytotoxic agents given for treatment were ineffective in these patients. The cut-off Ci value must be adjusted to 0.5 for prognosis of the effect of the drug on a patient in vivo when the drug is tested on said patient's cells in vitro using the method of the present invention. Ci values of 0-0.5 indicated resistance and values above 0.5 predicted sensitivity against the drug tested.
Peripheral blood mononuclear cells (pBMC) from a patient with chronic lymphatic leukaemia were isolated from the PB samples as described before (Staib, P. et al., Br. J. Haematol., 128(6):783-91 (2005)), resuspended in RPMI 1640 medium (Biochrom, Berlin, Germany) containing 20 vol. % fetal calf serum (FCS; Biochrom, Berlin, Germany) and added into the precoated 96-well plate with a final cell concentration of 10,000 cells/well and a volume of 100 μl. The plates were then agitated for 15 min in order to solubilize the dried fludarabine phosphate. Subsequently, the plates were incubated for 96 h (37° C., 5% CO2, humidified atmosphere). Thereafter, 50 μl of an 11 μM propidium iodide (PI)-solution in 0.9% aqueous NaCl solution (NaCl 0.9%) (Invitrogen, Leiden, Netherlands) were added and incubated for 15 min at room temperature. PI is a standard flow cytometric viability probe and is used to distinguish viable from nonviable cells. Viable cells with intact membranes exclude PI, whereas the membranes of dead and damaged cells are permeable to PI. PI only stains cells with compromised cell membrane, whilst live cells which have intact membranes are not stained by PI.
The chemosensitivity index Ci based on the DiSC assay as described in Staib, P. et al., Br. J. Haematol., 128(6):783-91 (2005) is known to have a very high accuracy of prediction (98%) for the clinical outcome of a particular chemotherapy (Staib, P. et al., Br. J. Haematol., 128(6):783-91 (2005)). In order to evaluate the accuracy of the cytotoxicity assay as described in example 1 (“new method”), the Ci determination was performed for assay results of patient samples analyzed with the traditional DiSC assay and—in parallel—with the new assay method described in example 1. In total, 22 patient samples were analyzed. Fludara® was used in both assays. The cytotoxicity assay of example 1 was performed as described therein, and the DiSC assay was performed as described in Staib, P. et al., Br. J. Haematol., 128(6):783-91 (2005).

## Nc1nc(F)nc2c1ncn2[C@@H]1O[C@H](COP(=O)(O)O)[C@@H](O)[C@@H]1O [Fludarabine phosphate, 2-Fluoro-9-(5-O-phosphono-β-D-arabinofuranosyl)-9H-purin-6-amine]
Of 22 patients
  patients DiSC-Assay resistant / New method sensitive: 0
  patients DiSC-Assay sensitive / New method resistant: 0
Patient #1
  Ci (New Method): 0.99
  prediction (New Method): sensitive (values above 0.5 predicted sensitivity against the drug tested)
Patient #2
  Ci (New Method): 0.94
  prediction (New Method): sensitive (values above 0.5 predicted sensitivity against the drug tested)
Patient #3
  Ci (New Method): 0.99
  prediction (New Method): sensitive (values above 0.5 predicted sensitivity against the drug tested)
Patient #4
  Ci (New Method): 0.89
  prediction (New Method): sensitive (values above 0.5 predicted sensitivity against the drug tested)
Patient #5
  Ci (New Method): 0.93
  prediction (New Method): sensitive (values above 0.5 predicted sensitivity against the drug tested)
Patient #6
  Ci (New Method): 0.79
  prediction (New Method): sensitive (values above 0.5 predicted sensitivity against the drug tested)
Patient #7
  Ci (New Method): 0.74
  prediction (New Method): sensitive (values above 0.5 predicted sensitivity against the drug tested)
Patient #8
  Ci (New Method): 0.83
  prediction (New Method): sensitive (values above 0.5 predicted sensitivity against the drug tested)
Patient #9
  Ci (New Method): 0.65
  prediction (New Method): sensitive (values above 0.5 predicted sensitivity against the drug tested)
Patient #10
  Ci (New Method): 0.74
  prediction (New Method): sensitive (values above 0.5 predicted sensitivity against the drug tested)
Patient #11
  Ci (New Method): 0.60
  prediction (New Method): sensitive (values above 0.5 predicted sensitivity against the drug tested)
Patient #12
  Ci (New Method): 0.81
  prediction (New Method): sensitive (values above 0.5 predicted sensitivity against the drug tested)
Patient #13
  Ci (New Method): 0.65
  prediction (New Method): sensitive (values above 0.5 predicted sensitivity against the drug tested)
Patient #14
  Ci (New Method): 0.63
  prediction (New Method): sensitive (values above 0.5 predicted sensitivity against the drug tested)
Patient #15
  Ci (New Method): 0.71
  prediction (New Method): sensitive (values above 0.5 predicted sensitivity against the drug tested)
Patient #16
  Ci (New Method): 0.35
  prediction (New Method): resistant (Ci values of 0-0.5 indicated resistance)
Patient #17
  Ci (New Method): 0.41
  prediction (New Method): resistant (Ci values of 0-0.5 indicated resistance)
Patient #18
  Ci (New Method): 0.35
  prediction (New Method): resistant (Ci values of 0-0.5 indicated resistance)
Patient #19
  Ci (New Method): 0.24
  prediction (New Method): resistant (Ci values of 0-0.5 indicated resistance)
Patient #20
  Ci (New Method): 0.36
  prediction (New Method): resistant (Ci values of 0-0.5 indicated resistance)
Patient #21
  Ci (New Method): 0.41
  prediction (New Method): resistant (Ci values of 0-0.5 indicated resistance)
Patient #22
  Ci (New Method): 0.24
  prediction (New Method): resistant (Ci values of 0-0.5 indicated resistance)
